These results are taken from the OligoGym collection.

A short description of data set [1]: reporter assay of Huesken 2005. The conditions noted are these: siRNA. (In a reporter assay the amount or activity of a reporter protein is the signal.)
In data set [2] the target is UBE2V1. The data set is described as follows: reporter assay of Huesken 2005. To be noted: siRNA.

Oligonucleotides are written 5' to 3', each unit as a sugar letter and its base; * is a phosphorothioate linkage, no mark a phosphodiester; rarer units and linkages stand in square brackets, end groups in braces. Plain capitals give the bases only. d = 2'-deoxy (DNA); r = 2'-OH (RNA)
Further: test concentration or dose not given here.

“sense rCrUrUrArGrUrCrCrCrCrUrCrUrUrUrCrUrGrGdTdT / antisense rCrCrArGrArArArGrArGrGrGrGrArCrUrArArGdGdG” gave a normalised inhibition (eCFP-eYFP dual reporter) in data set [1] of 87.5%.
In the case of “sense rGrArUrUrCrCrArCrCrArGrUrUrUrArGrArArGdTdT / antisense rCrUrUrCrUrArArArCrUrGrGrUrGrGrArArUrCdTdG”, the normalised inhibition (eCFP-eYFP dual reporter) in data set [1] amounted to 84%.
Take “sense rCrUrUrGrCrCrUrCrUrGrArGrGrArArUrGrArGdTdT / antisense rCrUrCrArUrUrCrCrUrCrArGrArGrGrCrArArGdAdA”: the normalised inhibition (eCFP-eYFP dual reporter) in data set [1] came to 59.8%.
In turn, “sense rGrArUrUrUrArGrGrCrUrUrGrArGrGrGrArGrAdTdT / antisense rUrCrUrCrCrCrUrCrArArGrCrCrUrArArArUrCdCdA” had a normalised inhibition (eCFP-eYFP dual reporter) in data set [1] of 90.8%.
As for “sense rGrCrCrCrUrCrCrUrGrUrGrArCrCrUrCrCrArUdTdT / antisense rArUrGrGrArGrGrUrCrArCrArGrGrArGrGrGrCdAdC”, the normalised inhibition (eCFP-eYFP dual reporter) in data set [1] amounted to 89%.
“sense rCrUrCrUrGrUrCrUrCrUrCrUrGrCrCrArCrArUdTdT / antisense rArUrGrUrGrGrCrArGrArGrArGrArCrArGrArGdCdC” had a normalised inhibition (eCFP-eYFP dual reporter) in data set [1] of 62.3%.
On to “sense rUrCrCrCrUrGrCrUrUrCrUrGrArGrArCrUrUrCdTdT / antisense rGrArArGrUrCrUrCrArGrArArGrCrArGrGrGrAdAdG”, for which the normalised inhibition (eCFP-eYFP dual reporter) in data set [1] came out at 67.9%.
Still for that read-out and setting: for “sense rCrGrUrUrUrCrArUrUrGrUrUrCrCrUrGrUrGrAdTdT / antisense rUrCrArCrArGrGrArArCrArArUrGrArArArCrGdAdC” the value was 54.2%; for “sense rUrGrGrArUrUrUrArGrGrCrUrUrGrArGrGrGrAdTdT / antisense rUrCrCrCrUrCrArArGrCrCrUrArArArUrCrCrAdGdA”, 81.4%.
Turning to “sense rArCrCrCrUrUrUrArCrArGrArArCrArCrCrCrAdTdT / antisense rUrGrGrGrUrGrUrUrCrUrGrUrArArArGrGrGrUdGdG”, the normalised inhibition (eCFP-eYFP dual reporter) in data set [1] was determined as 86.5%.
“sense rArCrUrUrArArCrUrUrCrUrGrArGrCrArArUrAdTdT / antisense rUrArUrUrGrCrUrCrArGrArArGrUrUrArArGrUdAdA” came in with a normalised inhibition (eCFP-eYFP dual reporter) in data set [1] of 90.7%.
In data set [1], “sense rCrUrCrUrCrUrGrCrCrArCrArUrGrGrUrGrUrGdTdT / antisense rCrArCrArCrCrArUrGrUrGrGrCrArGrArGrArGdAdC” registered a normalised inhibition (eCFP-eYFP dual reporter) of 46.7%.
With “sense rCrCrUrUrGrGrArArArCrGrArArCrCrArArGrCdTdT / antisense rGrCrUrUrGrGrUrUrCrGrUrUrUrCrCrArArGrGdGdA”, the normalised inhibition (eCFP-eYFP dual reporter) in data set [1] was 85.8%.
For “sense rGrArGrGrArCrUrCrCrUrUrCrCrUrUrCrUrCrUdTdT / antisense rArGrArGrArArGrGrArArGrGrArGrUrCrCrUrCdTdG”, in data set [1], the normalised inhibition (eCFP-eYFP dual reporter) turned out to be 81.2%.
In turn, “sense rGrGrCrArGrCrGrGrGrArGrArGrArGrCrArArCdTdT / antisense rGrUrUrGrCrUrCrUrCrUrCrCrCrGrCrUrGrCrCdCdC” registered a normalised inhibition (eCFP-eYFP dual reporter) in data set [1] of 61.9%.
Still for that read-out and setting: for “sense rGrArGrArGrArGrCrArArCrArGrGrGrUrArUrGdTdT / antisense rCrArUrArCrCrCrUrGrUrUrGrCrUrCrUrCrUrCdCdC” the value was 85.5%.
“sense rCrArGrArArUrUrCrArUrArUrArGrCrArUrCrAdTdT / antisense rUrGrArUrGrCrUrArUrArUrGrArArUrUrCrUrGdCdC”: in data set [2], the normalised inhibition (eCFP-eYFP dual reporter) was found to be 90%.
Same read-out and setting: to “sense rArCrCrUrArGrArArArArUrUrUrCrArCrUrGrCdTdT / antisense rGrCrArGrUrGrArArArUrUrUrUrCrUrArGrGrUdTdC” belongs 36.5%.
On to “sense rGrCrCrArUrArUrCrArGrUrGrCrUrArGrCrArAdTdT / antisense rUrUrGrCrUrArGrCrArCrUrGrArUrArUrGrGrCdTdC”, for which the normalised inhibition (eCFP-eYFP dual reporter) in data set [2] was 92.1%.
